Results as given in US10793564B2, “Amino acid compounds and methods of use” (Pliant Therapeutics, Inc., priority 2018, dated 2020).

Target: recombinant human integrin αVβ6 (Homo sapiens (Human), UniProt P06756+P18564)
Assay: Solid phase integrin αVβ6 binding assay
Conditions: inhibition of recombinant TGFβ1 LAP binding to coated integrin, IC50 presented in four ranges, read-out: αvβ6 Inhibition IC50 (nM) - range
Summary of the method: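 Plates coated with recombinant human αVβ6 (2 μg/mL) and blocked; compounds competed with TGFβ1 LAP (0.67 μg/mL) in Mn2+ (0.5 mM)/BSA/sucrose TBS for 2 h at 25° C. Bound LAP detected by biotin anti-LAP and peroxidase-streptavidin; IC50 by four-parameter logistic fit.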

Chain of recombinant human integrin αVβ6 (P06756 31-992): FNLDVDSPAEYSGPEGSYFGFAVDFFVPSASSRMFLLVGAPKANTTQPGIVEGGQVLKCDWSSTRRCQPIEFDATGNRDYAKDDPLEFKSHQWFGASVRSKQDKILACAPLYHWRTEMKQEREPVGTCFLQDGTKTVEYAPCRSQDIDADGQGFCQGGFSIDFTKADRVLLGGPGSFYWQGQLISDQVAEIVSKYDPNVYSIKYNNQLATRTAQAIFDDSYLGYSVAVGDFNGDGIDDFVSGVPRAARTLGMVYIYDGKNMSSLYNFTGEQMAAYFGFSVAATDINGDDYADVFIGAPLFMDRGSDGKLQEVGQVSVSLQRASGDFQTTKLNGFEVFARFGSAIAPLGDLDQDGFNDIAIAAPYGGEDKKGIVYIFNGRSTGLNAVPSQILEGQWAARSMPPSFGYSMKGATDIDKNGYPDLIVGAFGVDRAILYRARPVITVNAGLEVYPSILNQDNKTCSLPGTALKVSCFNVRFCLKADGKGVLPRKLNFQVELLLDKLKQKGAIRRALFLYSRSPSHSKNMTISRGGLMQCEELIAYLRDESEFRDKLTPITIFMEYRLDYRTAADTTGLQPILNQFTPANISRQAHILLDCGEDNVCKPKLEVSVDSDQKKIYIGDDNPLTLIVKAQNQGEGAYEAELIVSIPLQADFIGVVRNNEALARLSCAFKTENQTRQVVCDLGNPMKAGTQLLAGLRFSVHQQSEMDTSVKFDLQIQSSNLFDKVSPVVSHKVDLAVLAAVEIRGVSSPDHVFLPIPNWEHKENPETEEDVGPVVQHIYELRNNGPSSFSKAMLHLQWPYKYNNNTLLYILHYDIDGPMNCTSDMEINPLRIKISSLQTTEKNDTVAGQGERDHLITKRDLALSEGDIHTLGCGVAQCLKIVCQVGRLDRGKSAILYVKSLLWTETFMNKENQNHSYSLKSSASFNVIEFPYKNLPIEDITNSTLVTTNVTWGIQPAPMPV
Chain of recombinant human integrin αVβ6 (P18564 22-707): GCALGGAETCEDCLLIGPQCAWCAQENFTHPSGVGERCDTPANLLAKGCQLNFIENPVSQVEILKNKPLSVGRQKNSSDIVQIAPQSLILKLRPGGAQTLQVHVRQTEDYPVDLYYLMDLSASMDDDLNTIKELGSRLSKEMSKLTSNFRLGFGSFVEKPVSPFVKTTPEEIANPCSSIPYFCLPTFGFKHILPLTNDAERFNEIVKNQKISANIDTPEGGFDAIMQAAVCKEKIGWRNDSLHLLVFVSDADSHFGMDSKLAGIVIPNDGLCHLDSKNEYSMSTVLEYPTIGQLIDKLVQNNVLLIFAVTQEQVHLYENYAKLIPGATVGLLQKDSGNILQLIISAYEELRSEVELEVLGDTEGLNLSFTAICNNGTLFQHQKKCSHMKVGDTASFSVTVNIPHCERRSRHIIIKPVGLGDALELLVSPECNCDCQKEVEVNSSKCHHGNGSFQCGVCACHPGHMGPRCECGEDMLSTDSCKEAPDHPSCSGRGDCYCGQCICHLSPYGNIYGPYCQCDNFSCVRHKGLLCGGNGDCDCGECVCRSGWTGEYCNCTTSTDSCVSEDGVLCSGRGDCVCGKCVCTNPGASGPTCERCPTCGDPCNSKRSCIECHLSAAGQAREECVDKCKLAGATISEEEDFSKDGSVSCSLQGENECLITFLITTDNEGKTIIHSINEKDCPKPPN

Row | Structure (SMILES) | IC50
1 | COCCN(CCCCc1ccc2c(n1)NCCC2)CC[C@H](Nc1nc(C)nc2ccccc12)C(=O)O [Compound 10, (S)-4-((2-methoxyethyl) (4-(5,6,7,8-tetrahydro-1,8-naphthyridin-2-yl)butyl)amino)-2-((2-methylquinazolin-4-yl)amino) butanoic Acid] | < 50 nM
2 | Cc1ccc(OCCN(CCCCc2ccc3c(n2)NCCC3)CC[C@H](Nc2ncnc3ccccc23)C(=O)O)cn1 [Compound 59, (S)-4-((2-((6-methylpyridin-3-yl)oxy)ethyl) (4-(5,6,7,8-tetrahydro-1,8-naphthyridin-2-yl)butyl)amino)-2-(quinazolin-4-ylamino) butanoic Acid] | < 50 nM
3 | CN(C)C(=O)CN(CCCCc1ccc2c(n1)NCCC2)CC[C@H](Nc1ccnc(C(F)(F)F)n1)C(=O)O [Compound 145, (S)-4-((2-(dimethylamino)-2-oxoethyl) (4-(5,6,7,8-tetrahydro-1,8-naphthyridin-2-yl)butyl)amino)-2-((2-(trifluoromethyl)pyrimidin-4-yl)amino) butanoic Acid] | < 50 nM
4 | O=C(O)[C@H](CCN(CCCCc1ccc2c(n1)NCCC2)C1CC1)Nc1ccnc(C(F)(F)F)n1 [Compound 115, (S)-4-(cyclopropyl(4-(5,6,7,8-tetrahydro-1,8-naphthyridin-2-yl)butyl)amino)-2-((2-(trifluoromethyl)pyrimidin-4-yl)amino) butanoic Acid] | 50 to 250 nM
5 | O=C(O)[C@H](CCN(CCCCc1ccc2c(n1)NCCC2)C1CC1)Nc1ncnc2ccccc12 [Compound 6, (S)-4-(cyclopropyl(4-(5,6,7,8-tetrahydro-1,8-naphthyridin-2-yl)butyl)amino)-2-(quinazolin-4-ylamino) butanoic Acid] | 50 to 250 nM
6 | O=C(O)[C@H](CCN(CCCCc1ccc2c(n1)NCCC2)CC(F)F)Nc1ncncc1-c1ccccc1 [Compound 119, (S)-4-((2,2-difluoroethyl) (4-(5,6,7,8-tetrahydro-1,8-naphthyridin-2-yl)butyl)amino)-2-((5-phenylpyrimidin-4-yl)amino) butanoic Acid] | > 1000 nM
7 | N#Cc1cnc(N[C@@H](CCN(CCCCc2ccc3c(n2)NCCC3)CCOc2ccccc2)C(=O)O)nc1 [Compound 111, (S)-2-((5-cyanopyrimidin-2-yl)amino)-4-((2-phenoxyethyl) (4-(5,6,7,8-tetrahydro-1,8-naphthyridin-2-yl)butyl)amino) butanoic Acid] | < 50 nM
8 | Cc1nc(N[C@@H](CCN(CCCCc2ccc3c(n2)NCCC3)CCOc2ccc(F)cc2)C(=O)O)c2ccc(F)cc2n1 [Compound 40, (S)-2-((7-fluoro-2-methylquinazolin-4-yl)amino)-4-((2-(4-fluorophenoxy)ethyl) (4-(5,6,7,8-tetrahydro-1,8-naphthyridin-2-yl)butyl)amino) butanoic Acid] | < 50 nM
9 | CN(C)C(=O)CN(CCCCc1ccc2c(n1)NCCC2)CC[C@H](Nc1ncc(C(F)(F)F)cn1)C(=O)O [Compound 141, (S)-4-((2-(dimethylamino)-2-oxoethyl) (4-(5,6,7,8-tetrahydro-1,8-naphthyridin-2-yl)butyl)amino)-2-((5-(trifluoromethyl)pyrimidin-2-yl)amino) butanoic Acid] | 50 to 250 nM
10 | Cn1ncc2c(N[C@@H](CCN(CCCCc3ccc4c(n3)NCCC4)CCOc3ccc(F)cc3)C(=O)O)ncnc21 [Compound 123, (S)-4-((2-(4-fluorophenoxy)ethyl) (4-(5,6,7,8-tetrahydro-1,8-naphthyridin-2-yl)butyl)amino)-2-((1-methyl-1H-pyrazolo[3,4-d]pyrimidin-4-yl)amino) butanoic Acid] | < 50 nM
11 | O=C(O)[C@H](CCN(CCCCc1ccc2c(n1)NCCC2)CCOc1ccccc1)Nc1ncnc2[nH]ncc12 [Compound 90, (S)-2-((1H-pyrazolo[3,4-d]pyrimidin-4-yl)amino)-4-((2-phenoxyethyl) (4-(5,6,7,8-tetrahydro-1,8-naphthyridin-2-yl)butyl)amino) butanoic Acid] | < 50 nM
12 | COCCN(CCCCc1ccc2c(n1)NCCC2)CC[C@H](Nc1nc(C)nc2cc(F)ccc12)C(=O)O [Compound 12, (S)-2-((7-fluoro-2-methylquinazolin-4-yl)amino)-4-((2-methoxyethyl) (4-(5,6,7,8-tetrahydro-1,8-naphthyridin-2-yl)butyl)amino) butanoic Acid] | < 50 nM
13 | O=C(O)[C@H](CCN(CCCCc1ccc2c(n1)NCCC2)CCOc1ccccn1)Nc1ncnc2c(Cl)cccc12 [Compound 48, (S)-2-((8-chloroquinazolin-4-yl)amino)-4-((2-(pyridin-2-yloxy)ethyl) (4-(5,6,7,8-tetrahydro-1,8-naphthyridin-2-yl)butyl)amino) butanoic Acid] | < 50 nM
14 | Cc1ncccc1OCCN(CCCCc1ccc2c(n1)NCCC2)CC[C@H](Nc1ncnc2ccccc12)C(=O)O [Compound 52, (S)-4-((2-((2-methylpyridin-3-yl)oxy)ethyl) (4-(5,6,7,8-tetrahydro-1,8-naphthyridin-2-yl)butyl)amino)-2-(quinazolin-4-ylamino) butanoic Acid] | < 50 nM
15 | CC(=O)NCCN(CCCCc1ccc2c(n1)NCCC2)CC[C@H](Nc1ncnc2ccccc12)C(=O)O [Compound 63, (S)-4-((2-acetamidoethyl) (4-(5,6,7,8-tetrahydro-1,8-naphthyridin-2-yl)butyl)amino)-2-(quinazolin-4-ylamino) butanoic Acid] | < 50 nM
16 | COC[C@@H](F)CN(CCCCc1ccc2c(n1)NCCC2)CC[C@H](Nc1nc(-c2cccnc2)nc2ccccc12)C(=O)O [Compound 109, (S)-4-(((S)-2-fluoro-3-methoxypropyl) (4-(5,6,7,8-tetrahydro-1,8-naphthyridin-2-yl)butyl)amino)-2-((2-(pyridin-3-yl)quinazolin-4-yl)amino) butanoic Acid] | < 50 nM
17 | O=C(O)[C@H](CCN(CCCCc1ccc2c(n1)NCCC2)CCOc1cncc(F)c1)Nc1ncnc2cccnc12 [Compound 60, (S)-4-((2-((5-fluoropyridin-3-yl)oxy)ethyl) (4-(5,6,7,8-tetrahydro-1,8-naphthyridin-2-yl)butyl)amino)-2-(pyrido[3,2-d]pyrimidin-4-ylamino) butanoic Acid] | < 50 nM

Second part, the compound after the results:

Row | IC50 | Structure (SMILES)
18 | < 50 nM | CO[C@H](C)CN(CCCCc1ccc2c(n1)NCCC2)CC[C@H](Nc1ncc(C(F)(F)F)cn1)C(=O)O [Compound 69, (S)-4-(((R)-2-methoxypropyl) (4-(5,6,7,8-tetrahydro-1,8-naphthyridin-2-yl)butyl)amino)-2-((5-(trifluoromethyl)pyrimidin-2-yl)amino) butanoic Acid]
19 | < 50 nM | COc1cccc2c(N[C@@H](CCN(CCCF)CCCCc3ccc4c(n3)NCCC4)C(=O)O)ncnc12 [Compound 43, (S)-4-((3-fluoropropyl) (4-(5,6,7,8-tetrahydro-1,8-naphthyridin-2-yl)butyl)amino)-2-((8-methoxyquinazolin-4-yl)amino) butanoic Acid]
20 | < 50 nM | COC[C@@H](F)CN(CCCCc1ccc2c(n1)NCCC2)CC[C@H](Nc1ncnc2ccccc12)C(=O)O [Compound 31, (S)-4-(((S)-2-fluoro-3-methoxypropyl) (4-(5,6,7,8-tetrahydro-1,8-naphthyridin-2-yl)butyl)amino)-2-(quinazolin-4-ylamino) butanoic Acid]
21 | > 1000 nM | O=C(O)[C@H](CCN(CCCCc1ccc2c(n1)NCCC2)CC(F)F)Nc1cc(-n2cccn2)ncn1 [Compound 98, (S)-2-((6-(1H-pyrazol-1-yl)pyrimidin-4-yl)amino)-4-((2,2-difluoroethyl) (4-(5,6,7,8-tetrahydro-1,8-naphthyridin-2-yl)butyl)amino) butanoic Acid]
22 | < 50 nM | COCCN(CCCCc1ccc2c(n1)NCCC2)CC[C@H](Nc1ncnc2cc(F)c(F)cc12)C(=O)O [Compound 21, (S)-2-((6,7-difluoroquinazolin-4-yl)amino)-4-((2-methoxyethyl) (4-(5,6,7,8-tetrahydro-1,8-naphthyridin-2-yl)butyl)amino) butanoic Acid]
23 | > 1000 nM | O=C(O)[C@H](CCN(CCCCc1ccc2c(n1)NCCC2)CC(F)F)Nc1ccncn1 [Compound 120, (S)-4-((2,2-difluoroethyl) (4-(5,6,7,8-tetrahydro-1,8-naphthyridin-2-yl)butyl)amino)-2-(pyrimidin-4-ylamino) butanoic Acid]
24 | < 50 nM | CO[C@@H](C)CN(CCCCc1ccc2c(n1)NCCC2)CC[C@H](Nc1ncnc2ccccc12)C(=O)O [Compound 25, (S)-4-(((S)-2-methoxypropyl) (4-(5,6,7,8-tetrahydro-1,8-naphthyridin-2-yl)butyl)amino)-2-(quinazolin-4-ylamino) butanoic Acid]
25 | < 50 nM | CO[C@H](C)CN(CCCCc1ccc2c(n1)NCCC2)CC[C@H](Nc1cc(-n2cccn2)ncn1)C(=O)O [Compound 77, (S)-2-((6-(1H-pyrazol-1-yl)pyrimidin-4-yl)amino)-4-(((R)-2-methoxypropyl) (4-(5,6,7,8-tetrahydro-1,8-naphthyridin-2-yl)butyl)amino) butanoic Acid]
26 | < 50 nM | CO[C@H](C)CN(CCCCc1ccc2c(n1)NCCC2)CC[C@H](Nc1ncc(Br)cn1)C(=O)O [Compound 70, (S)-2-((5-bromopyrimidin-2-yl)amino)-4-(((R)-2-methoxypropyl) (4-(5,6,7,8-tetrahydro-1,8-naphthyridin-2-yl)butyl)amino) butanoic Acid]
27 | < 50 nM | COCCN(CCCCc1ccc2c(n1)NCCC2)CC[C@H](Nc1cc(C(F)F)ncn1)C(=O)O [Compound 23, (S)-2-((6-(difluoromethyl)pyrimidin-4-yl)amino)-4-((2-methoxyethyl) (4-(5,6,7,8-tetrahydro-1,8-naphthyridin-2-yl)butyl)amino) butanoic Acid]
28 | < 50 nM | COCCN(CCCCc1ccc2c(n1)NCCC2)CC[C@H](Nc1ncnc2c(Cl)cccc12)C(=O)O [Compound 38, (S)-2-((8-chloroquinazolin-4-yl)amino)-4-((2-methoxyethyl) (4-(5,6,7,8-tetrahydro-1,8-naphthyridin-2-yl)butyl)amino) butanoic Acid]
